For assay [1], the system named is Candida albicans (Candid). In words: Minimal inhibitory concentration, Candida. Type of assay: cell-based. The method, then:
(§1) The minimal inhibitory concentrations (MICs) of a variety of protegrins were determined against the following organisms: methicillin resistant Staphylococcus aureus (MRSA), Pseudomonas aeruginosa (Psa), vancomycin resistant Enterococcus fecium (VREF), Candida albicans (Candid) and Escherichia coli (E. Co), and are shown in Table 9.

A further assay relates to Escherichia coli (E. Co). In words: Minimal inhibitory concentration, E. coli. It counts as cell-based. On the procedure: as §1
Assay [2] concerns Pseudomonas aeruginosa (Psa). In words: Minimal inhibitory concentration, Psa. Type of assay: cell-based. On the procedure: as §1
Assay [3] relates to methicillin resistant Staphylococcus aureus (MRSA). In words: Minimal inhibitory concentration, MRSA. Type of assay: cell-based. On the procedure:
as §1

Assay [4] concerns lipid polysaccharide (LPS) of E. coli strain 0.55B5. In words: Limulus amebocyte lysate (LAL) test for endotoxin binding. The following applies: LPS 0.05 endotoxin unit/ml. Type of assay: biochemical.
The subject of assay [5] is Trichomonas vaginallis strain C1 (ATCC 30001); strains MR and TV. In words: Trichomonas vaginallis exposure assay. To be noted: strains MR and TV; 100 and 50 μg/ml.
A further assay deals with E. coli ML-35P. In words: Radial diffusion assay in agarose gels, E. coli. Type of assay: cell-based.
The test system of a further assay is C. albicans, strain 820. Type of assay: cell-based, Candida albicans. To be noted: 90% fetal calf serum.

Square brackets hold non-standard residues; d marks the D form. Ends that are not written are not given here.

This is an account of results in patent US6653442B1, “Protegrins” (priority 1993, dated 2003).

Method for C. albicans, strain 820: The units of activity in the radial diffusion assay were measured as described; 10 units correspond to a 1 mm diameter clear zone around the sample well.
(§2) The radial diffusion assay in agarose gels described in Example 1 was also used to test the activity of the purified protegrins.
Similarly, using C. albicans as a target organism, underlayers were prepared with 10 mM sodium phosphate with and without 10% normal human serum.
Method for E. coli ML-35P: Aliquots (66 μl) of each fraction were dried by vacuum centrifugation and resuspended in 6.6 μl of 0.01% acetic acid. […] The units of activity in the radial diffusion assay were measured as described; 10 units correspond to a 1 mm diameter clear zone around the sample well.
as §2
The antimicrobial activity of the linearalized forms was also compared with that of the native protegrins.
This form of protegrin was tested against E. coli, L. monocytogenes, C. albicans and other microbes in the absence and presence of protease and otherwise as described for the radiodiffusion assay in agarose gels set forth in Example 1.
As described in Example 1, 0.3 mg/ml tripticase soy broth powder and 1% agarose were used as well in the underlay agar. In some cases 100 mM NaCl or RPMI plus 2.5% normal human serum (NHS) was added to the agar.

For “R-G-G-R-L-C-Y-A-R-R-R-F-A-V-C-V-G-R (RGGRLCYARRRFAVCVGR) [IB-289]”, in assay [1], the “minimal inhibitory concentration (MIC) Candid” value was determined as 1.6. The “minimal inhibitory concentration (MIC) E. Co” value with Escherichia coli (E. Co) was determined as 0.4. In assay [2], the “minimal inhibitory concentration (MIC) Psa” value came to 0.05.
“R-G-G-G-L-C-Y-T-R-P-R-F-T-V-C-V-G-R (RGGGLCYTRPRFTVCVGR-NH2; cysteine pairing not given here) [IB-226]”: the “minimal inhibitory concentration (MIC) MRSA” value in assay [3] is recorded as 8.7. The “minimal inhibitory concentration (MIC) E. Co” value in the assay with Escherichia coli (E. Co) is reported as 1.53. Moreover, the “minimal inhibitory concentration (MIC) Psa” value in assay [2] came out at 0.07.
In the case of “R-G-G-G-L-C-Y-A-R-G-W-I-A-F-C-V-G-R (RGGGLCYARGWIAFCVGR-NH2; cysteine pairing not given here) [IB-214]”, in assay [1], the “minimal inhibitory concentration (MIC) Candid” value was 32.6. For the same substance, the “minimal inhibitory concentration (MIC) MRSA” value in assay [3] was 2.1. Besides, the “minimal inhibitory concentration (MIC) E. Co” value in the assay with Escherichia coli (E. Co) was found to be 0.81. The “minimal inhibitory concentration (MIC) Psa” value in assay [2] was 0.59.
In the case of “R-G-G-G-L-C-Y-A-R-G-F-I-A-V-C-F-G-R (RGGGLCYARGFIAVCFGR-NH2; not fully specified; printed as R-G-G-G-L-C-Y-A-R-G-F-I-A-V-C-F-G-R; cysteine pairing not given here) [IB-216]”, the “minimal inhibitory concentration (MIC) Candid” value in assay [1] came to 65.8. In assay [3], the “minimal inhibitory concentration (MIC) MRSA” value came out at 19. In addition, the “minimal inhibitory concentration (MIC) E. Co” value in the assay on Escherichia coli (E. Co) was 3.27. Further, the “minimal inhibitory concentration (MIC) Psa” value in assay [2] worked out at 14.
For the substance “R-G-G-R-V-C-Y-C-R-G-R-F-C-V-C-V (RGGRVCYCRGRFCVCV) [IB-400]”, in assay [3], the “minimal inhibitory concentration (MIC) MRSA” value came to 8. Besides, the “minimal inhibitory concentration (MIC) Psa” value in assay [2] was 2.
Regarding “HNP-4: native human defensin (VCSCRLVFCRRTELRVGNCLIGGVSFTYCCTRV; ends and bridges not checked; cysteine pairing not given here; UniProt P12838 64-96, looked up) [reference compound]”, the “gel formation in LAL test” value in assay [4] (2.5 μg peptide in 0.2 ml) is recorded as “trace”; in assay [4] (5 μg peptide in 0.2 ml), “trace”; in assay [4] (10 μg peptide in 0.2 ml), “no gel”.
“R-G-G-G-L-C-Y-C-R-R-R-F-C-V-C-V-G-R-OH (RGGGLCYCRRRFCVCVGR-OH; cysteine pairing not given here) [IB-249]”: the “minimal inhibitory concentration (MIC) Candid” value in assay [1] is recorded as 3.29. For the same substance, in the assay with Escherichia coli (E. Co), the “minimal inhibitory concentration (MIC) E. Co” value is 0.4.
Regarding “R-G-G-R-L-C-Y-C-R-R-R-F-C-V-C-V-G-R (all †) ([dR]GG[dR][dL][dC][dY][dC][dR][dR][dR][dF][dC][dV][dC][dV]G[dR]-NH2; cysteine pairing not given here) [enantioPG-1]”, in assay [5], the “susceptibility of metronidazole-resistant clinical isolates” value was “susceptible”. Moreover, in the assay with E. coli ML-35P (absence of protease), the “inhibition of growth of E. coli (FIG. 12a)” value is listed as “equally effective”. In the assay on E. coli ML-35P (trypsin or chymotrypsin, organism of FIG. 12b not stated), the “antibacterial effect in presence of protease (FIG. 12b)” value was “neither trypsin nor chymotrypsin inhibits the antibacterial effect”.
For the substance “HNP-2: native human defensin used as control (CYCRIPACIAGERRYGTCIYQGRLWAFCC; ends and bridges not checked; cysteine pairing not given here; UniProt P59665 66-94, looked up) [reference compound]”, the “gel formation in LAL test” value in assay [4] (2.5 μg peptide in 0.2 ml), in assay [4] (5 μg peptide in 0.2 ml) and in assay [4] (10 μg peptide in 0.2 ml) was “trace” in each case. For the same substance, the “activity against Candida albicans in fetal calf serum (FIG. 5c)” value with C. albicans, strain 820 is on record as “lose their ability to inactivate C. albicans”.
As to “HNP-3: native human defensin [reference compound]”, the “gel formation in LAL test” value in assay [4] (10 μg peptide in 0.2 ml) is recorded as “no gel”.
For the substance “R-G-G-R-L-C-Y-A-R-R-R-F-A-V-C-V-G-R-OH (RGGRLCYARRRFAVCVGR-OH; cysteine pairing not given here) [IB-288]”, the “minimal inhibitory concentration (MIC) Candid” value in assay [1] worked out at 1.6. The “minimal inhibitory concentration (MIC) E. Co” value with Escherichia coli (E. Co) worked out at 0.4. The “minimal inhibitory concentration (MIC) Psa” value in assay [2] was determined as 0.05.
“R-G-G-R-V-C-Y-C-R-G-R-F-C-V-C-V-OH (RGGRVCYCRGRFCVCV-OH; cysteine pairing not given here) [IB-401]”: the “minimal inhibitory concentration (MIC) MRSA” value in assay [3] was 64. The “minimal inhibitory concentration (MIC) Psa” value in assay [2] is reported as 1.
Regarding “R-G-G-G-L-C-Y-C-R-R-G-F-C-V-C-F-G-R (RGGGLCYCRRGFCVCFGR-NH2; cysteine pairing not given here) [IB-223]”, in assay [1], the “minimal inhibitory concentration (MIC) Candid” value was 1.62. In assay [3], the “minimal inhibitory concentration (MIC) MRSA” value was 1.93. In addition, the “minimal inhibitory concentration (MIC) Psa” value in assay [2] worked out at 0.14.
Take “R-G-G-R-V-C-Y-C-R-G-R-F-C-V-C-V-G-R (RGGRVCYCRGRFCVCVGR) [IB-398]”: in assay [3], the “minimal inhibitory concentration (MIC) MRSA” value was determined as 8. Also, the “minimal inhibitory concentration (MIC) Psa” value in assay [2] is given as 1.
“R-G-G-G-L-C-Y-A-R-K-G-F-A-V-C-V-G-R (RGGGLCYARKGFAVCVGR-NH2; cysteine pairing not given here) [IB-227]”: the “minimal inhibitory concentration (MIC) MRSA” value in assay [3] is listed as >128. The “minimal inhibitory concentration (MIC) E. Co” value in the assay with Escherichia coli (E. Co) is 2.65. In addition, the “minimal inhibitory concentration (MIC) Psa” value in assay [2] is 0.01.
As to “R-G-G-R-L-C-Y-C-R-R-R-F-C-V-C-V-G-R-OH (RGGRLCYCRRRFCVCVGR-OH; cysteine pairing not given here) [IB-247]”, the “minimal inhibitory concentration (MIC) Candid” value in assay [1] is 1.2. For the same substance, in assay [3], the “minimal inhibitory concentration (MIC) MRSA” value is recorded as 1.5. Besides, in the assay with Escherichia coli (E. Co), the “minimal inhibitory concentration (MIC) E. Co” value was 0.6. Besides, in assay [2], the “minimal inhibitory concentration (MIC) Psa” value is recorded as 0.11.
The matching figures for “R-G-G-G-L-C-Y-C-R-R-P-F-C-V-C-V-G-R (RGGGLCYCRRPFCVCVGR-NH2; cysteine pairing not given here) [IB-224]”: 7.69, 3.1, 0.15 and 0.06.
Consider “R-G-G-G-L-C-Y-C-R-P-R-F-C-V-C-V-G-R-OH (RGGGLCYCRPRFCVCVGR-OH; cysteine pairing not given here) [IB-324]”, for which the “minimal inhibitory concentration (MIC) Candid” value in assay [1] was 17.7. Further, the “minimal inhibitory concentration (MIC) E. Co” value in the assay with Escherichia coli (E. Co) is 3.51.
On to “R-G-G-G-L-C-Y-C-F-P-K-F-C-V-C-V-G-R (RGGGLCYCFPKFCVCVGR-NH2; cysteine pairing not given here) [IB-218]”, for which, in assay [1], the “minimal inhibitory concentration (MIC) Candid” value came out at 15.96. For the same substance, the “minimal inhibitory concentration (MIC) MRSA” value in assay [3] was found to be 3.48. In assay [2], the “minimal inhibitory concentration (MIC) Psa” value is recorded as 1.2.
